In ChEMBL document CHEMBL3400013, “Synthesis and biological activity evaluation of hydrazone derivatives based on a Tröger's base skeleton” (Bioorg Med Chem, 2015):
Calls of active or inactive are those of the source. No cut-off for these calls is given here.

system: Mycobacterium tuberculosis; assay: Antimicrobial activity against Mycobacterium bovis BCG up to 100 uM after 24 to 48 hrs by broth microdilution method; type: functional, organism-based; conditions: variant bovis BCG

SMILES | Activity
COC(=O)c1ccc(O)c(/C=N/NC(=O)c2ccc3c4c(ccc3c2)N2Cc3c(ccc5cc(C(=O)N/N=C/c6cc(C(=O)OC)ccc6O)ccc35)N(C4)C2)c1 | inactive
O=C(N/N=C/c1nccc2ccccc12)c1ccc2c3c(ccc2c1)N1Cc2c(ccc4cc(C(=O)N/N=C/c5nccc6ccccc56)ccc24)N(C3)C1 | inactive
COc1ccc(O)c(/C=N/NC(=O)c2ccc3c4c(ccc3c2)N2Cc3c(ccc5cc(C(=O)N/N=C/c6cc(OC)ccc6O)ccc35)N(C4)C2)c1 | inactive
O=C(NN=C(c1ccccn1)c1ccccn1)c1ccc2c3c(ccc2c1)N1Cc2c(ccc4cc(C(=O)NN=C(c5ccccn5)c5ccccn5)ccc24)N(C3)C1 | inactive
O=C(N/N=C/c1ccccc1O)c1ccc2c3c(ccc2c1)N1Cc2c(ccc4cc(C(=O)N/N=C/c5ccccc5O)ccc24)N(C3)C1 | inactive
COc1cccnc1/C=N/NC(=O)c1ccc2c3c(ccc2c1)N1Cc2c(ccc4cc(C(=O)N/N=C/c5ncccc5OC)ccc24)N(C3)C1 | inactive
O=C(N/N=C/c1cc([N+](=O)[O-])ccc1O)c1ccc2c3c(ccc2c1)N1Cc2c(ccc4cc(C(=O)N/N=C/c5cc([N+](=O)[O-])ccc5O)ccc24)N(C3)C1 | inactive
O=C(N/N=C/c1cc(Cl)ccc1O)c1ccc2c3c(ccc2c1)N1Cc2c(ccc4cc(C(=O)N/N=C/c5cc(Cl)ccc5O)ccc24)N(C3)C1 | inactive
O=C(N/N=C/c1cc(O)ccc1O)c1ccc2c3c(ccc2c1)N1Cc2c(ccc4cc(C(=O)N/N=C/c5cc(O)ccc5O)ccc24)N(C3)C1 | inactive
O=C(N/N=C/c1cc(F)ccc1O)c1ccc2c3c(ccc2c1)N1Cc2c(ccc4cc(C(=O)N/N=C/c5cc(F)ccc5O)ccc24)N(C3)C1 | inactive
Cc1ccc(O)c(/C=N/NC(=O)c2ccc3c4c(ccc3c2)N2Cc3c(ccc5cc(C(=O)N/N=C/c6cc(C)ccc6O)ccc35)N(C4)C2)c1 | inactive
